Test results from publication PMC8213057, “Targeting ALK2: An Open Science Approach to Developing Therapeutics for the Treatment of Diffuse Intrinsic Pontine Glioma” (Journal of Medicinal Chemistry, 2020).
Values joined by “and” are separate entries in the source; they are usually repeats but may differ in a detail not shown here. Equal values may be shown once.

Columns and labels:
[1] = target: T1, TSSK2 (Homo sapiens, UniProt Q96PF2); experiment: biochemical; settings: read-out: % enzyme activity, 1 μM; Run 1, Run 2
T1 sequence (Q96PF2 1-358): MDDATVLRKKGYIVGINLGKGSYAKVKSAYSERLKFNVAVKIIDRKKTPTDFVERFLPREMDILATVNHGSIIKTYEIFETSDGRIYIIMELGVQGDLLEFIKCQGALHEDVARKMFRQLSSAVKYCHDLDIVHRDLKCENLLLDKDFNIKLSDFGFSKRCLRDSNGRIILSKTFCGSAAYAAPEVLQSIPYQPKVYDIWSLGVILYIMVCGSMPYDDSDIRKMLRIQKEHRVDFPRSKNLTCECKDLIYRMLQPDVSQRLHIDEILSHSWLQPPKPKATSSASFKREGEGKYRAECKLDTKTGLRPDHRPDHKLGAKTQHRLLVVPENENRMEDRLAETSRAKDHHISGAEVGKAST

[2] = target: T2, NEK2 (Homo sapiens, UniProt P51955); settings: 1 μM; Run 1, Run 2
T2 sequence (P51955 1-445): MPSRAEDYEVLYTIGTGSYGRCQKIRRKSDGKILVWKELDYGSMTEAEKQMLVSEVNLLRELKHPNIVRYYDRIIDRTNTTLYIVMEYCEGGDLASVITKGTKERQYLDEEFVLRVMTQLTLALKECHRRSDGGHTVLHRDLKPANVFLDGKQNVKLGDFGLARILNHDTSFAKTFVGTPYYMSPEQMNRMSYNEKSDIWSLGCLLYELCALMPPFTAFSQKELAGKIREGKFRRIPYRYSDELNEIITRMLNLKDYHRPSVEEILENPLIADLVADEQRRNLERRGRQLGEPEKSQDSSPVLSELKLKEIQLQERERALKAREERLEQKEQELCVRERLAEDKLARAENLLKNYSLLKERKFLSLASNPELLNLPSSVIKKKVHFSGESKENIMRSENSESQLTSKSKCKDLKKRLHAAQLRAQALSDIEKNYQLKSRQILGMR

[3] = target: CDK8/cyclin C (Homo sapiens, UniProt P49336); settings: 1 μM; Run 1, Run 2
[4] = target: FGFR3 (Homo sapiens, UniProt P22607); settings: 1 μM; Run 1, Run 2
Chain of FGFR3 (P22607 23-806): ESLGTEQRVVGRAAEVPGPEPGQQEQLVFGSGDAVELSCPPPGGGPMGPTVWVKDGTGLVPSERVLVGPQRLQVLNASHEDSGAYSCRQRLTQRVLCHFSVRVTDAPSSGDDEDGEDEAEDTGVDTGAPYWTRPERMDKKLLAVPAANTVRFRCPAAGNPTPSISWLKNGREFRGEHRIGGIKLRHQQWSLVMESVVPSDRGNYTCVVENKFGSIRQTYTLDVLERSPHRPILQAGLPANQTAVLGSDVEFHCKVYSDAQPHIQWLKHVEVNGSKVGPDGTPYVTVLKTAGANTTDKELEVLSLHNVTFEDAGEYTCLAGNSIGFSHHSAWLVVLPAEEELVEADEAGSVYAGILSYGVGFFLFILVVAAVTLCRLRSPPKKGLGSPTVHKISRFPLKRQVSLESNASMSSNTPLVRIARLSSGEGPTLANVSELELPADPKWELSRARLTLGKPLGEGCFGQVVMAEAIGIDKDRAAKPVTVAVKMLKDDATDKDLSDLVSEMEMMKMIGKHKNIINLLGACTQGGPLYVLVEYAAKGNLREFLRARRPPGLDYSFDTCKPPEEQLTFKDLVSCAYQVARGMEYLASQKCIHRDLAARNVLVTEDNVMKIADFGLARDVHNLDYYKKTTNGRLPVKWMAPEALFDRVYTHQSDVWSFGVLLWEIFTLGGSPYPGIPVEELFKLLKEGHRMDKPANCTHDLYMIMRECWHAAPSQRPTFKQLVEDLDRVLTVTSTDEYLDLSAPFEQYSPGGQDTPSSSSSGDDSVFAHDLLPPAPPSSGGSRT

[5] = target: MARK3 (Homo sapiens, UniProt P27448); experiment: biochemical; settings: read-out: % enzyme activity, 1 μM; Run 1, Run 2
Chain of MARK3 (P27448 whole entry): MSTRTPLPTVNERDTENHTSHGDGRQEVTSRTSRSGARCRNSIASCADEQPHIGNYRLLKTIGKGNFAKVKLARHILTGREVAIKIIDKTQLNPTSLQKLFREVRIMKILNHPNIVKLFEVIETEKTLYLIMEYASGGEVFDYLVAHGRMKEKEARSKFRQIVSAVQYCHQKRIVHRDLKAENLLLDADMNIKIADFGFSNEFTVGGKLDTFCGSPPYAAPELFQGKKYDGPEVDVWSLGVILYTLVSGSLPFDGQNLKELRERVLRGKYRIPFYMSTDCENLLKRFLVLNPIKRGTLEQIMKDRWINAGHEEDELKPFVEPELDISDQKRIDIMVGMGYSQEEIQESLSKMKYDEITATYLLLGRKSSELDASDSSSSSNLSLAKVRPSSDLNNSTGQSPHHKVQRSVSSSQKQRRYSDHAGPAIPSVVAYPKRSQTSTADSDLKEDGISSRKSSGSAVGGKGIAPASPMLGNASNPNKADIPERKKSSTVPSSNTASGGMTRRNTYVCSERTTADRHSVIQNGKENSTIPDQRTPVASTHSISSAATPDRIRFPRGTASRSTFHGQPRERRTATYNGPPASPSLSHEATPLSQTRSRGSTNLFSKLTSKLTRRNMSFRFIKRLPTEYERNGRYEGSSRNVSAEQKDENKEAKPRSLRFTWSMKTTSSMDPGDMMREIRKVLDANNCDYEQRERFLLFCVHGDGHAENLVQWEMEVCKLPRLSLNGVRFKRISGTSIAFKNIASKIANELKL

[6] = target: IRAK1 (Homo sapiens, UniProt P51617); settings: 1 μM; Run 1, Run 2
Chain of IRAK1 (P51617 whole entry): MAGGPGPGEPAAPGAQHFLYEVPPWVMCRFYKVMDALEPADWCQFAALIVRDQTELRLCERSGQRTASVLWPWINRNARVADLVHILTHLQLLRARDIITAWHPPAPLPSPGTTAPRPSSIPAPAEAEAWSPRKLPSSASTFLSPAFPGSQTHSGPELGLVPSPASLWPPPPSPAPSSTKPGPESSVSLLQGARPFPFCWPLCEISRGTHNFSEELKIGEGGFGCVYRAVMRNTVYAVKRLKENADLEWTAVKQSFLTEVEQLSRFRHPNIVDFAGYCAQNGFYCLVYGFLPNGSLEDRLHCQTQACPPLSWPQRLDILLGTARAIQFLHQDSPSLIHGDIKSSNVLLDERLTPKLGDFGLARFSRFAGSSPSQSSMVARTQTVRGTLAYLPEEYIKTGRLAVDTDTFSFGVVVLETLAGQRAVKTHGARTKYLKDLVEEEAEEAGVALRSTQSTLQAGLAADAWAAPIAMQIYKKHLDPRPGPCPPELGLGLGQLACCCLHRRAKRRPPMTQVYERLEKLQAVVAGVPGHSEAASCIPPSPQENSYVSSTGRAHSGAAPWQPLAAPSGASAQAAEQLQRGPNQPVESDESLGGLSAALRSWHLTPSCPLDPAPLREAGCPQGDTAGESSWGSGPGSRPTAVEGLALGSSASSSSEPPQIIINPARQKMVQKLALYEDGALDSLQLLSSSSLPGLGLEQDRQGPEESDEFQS

[7] = target: RIPK3 (Homo sapiens, UniProt Q9Y572); settings: 1 μM; Run 1, Run 2
Chain of RIPK3 (Q9Y572 whole entry): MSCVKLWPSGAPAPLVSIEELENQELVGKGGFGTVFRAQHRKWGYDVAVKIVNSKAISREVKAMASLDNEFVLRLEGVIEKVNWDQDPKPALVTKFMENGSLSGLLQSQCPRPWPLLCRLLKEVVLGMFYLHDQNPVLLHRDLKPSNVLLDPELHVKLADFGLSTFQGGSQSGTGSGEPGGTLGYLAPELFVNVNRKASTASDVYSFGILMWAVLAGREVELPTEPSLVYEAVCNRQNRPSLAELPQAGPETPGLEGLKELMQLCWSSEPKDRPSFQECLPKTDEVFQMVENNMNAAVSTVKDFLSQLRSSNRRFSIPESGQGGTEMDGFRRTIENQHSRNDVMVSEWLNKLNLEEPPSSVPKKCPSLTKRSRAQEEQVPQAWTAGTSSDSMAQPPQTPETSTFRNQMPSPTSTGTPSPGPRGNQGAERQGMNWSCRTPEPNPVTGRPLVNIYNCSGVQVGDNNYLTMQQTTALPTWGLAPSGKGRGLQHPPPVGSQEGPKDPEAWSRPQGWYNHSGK

[8] = target: CAMK2d (Homo sapiens, UniProt Q13557); experiment: biochemical; settings: read-out: % enzyme activity, 1 μM; Run 1, Run 2
[9] = target: MST4 (Homo sapiens, UniProt Q9P289); settings: 1 μM; Run 1, Run 2
Chain of MST4 (Q9P289 whole entry): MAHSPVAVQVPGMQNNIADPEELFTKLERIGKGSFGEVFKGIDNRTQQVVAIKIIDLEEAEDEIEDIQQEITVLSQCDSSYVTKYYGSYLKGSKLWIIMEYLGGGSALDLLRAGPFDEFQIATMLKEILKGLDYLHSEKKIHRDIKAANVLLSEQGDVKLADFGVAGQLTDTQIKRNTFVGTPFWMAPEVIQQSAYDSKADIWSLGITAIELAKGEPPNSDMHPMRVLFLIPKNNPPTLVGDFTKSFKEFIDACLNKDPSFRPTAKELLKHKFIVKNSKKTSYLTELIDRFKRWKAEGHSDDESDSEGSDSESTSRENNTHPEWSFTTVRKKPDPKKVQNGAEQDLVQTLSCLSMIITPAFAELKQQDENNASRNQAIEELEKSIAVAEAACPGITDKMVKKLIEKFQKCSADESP

[10] = target: PAK6 (Homo sapiens, UniProt Q9NQU5); settings: 1 μM; Run 1, Run 2
Chain of PAK6 (Q9NQU5 whole entry): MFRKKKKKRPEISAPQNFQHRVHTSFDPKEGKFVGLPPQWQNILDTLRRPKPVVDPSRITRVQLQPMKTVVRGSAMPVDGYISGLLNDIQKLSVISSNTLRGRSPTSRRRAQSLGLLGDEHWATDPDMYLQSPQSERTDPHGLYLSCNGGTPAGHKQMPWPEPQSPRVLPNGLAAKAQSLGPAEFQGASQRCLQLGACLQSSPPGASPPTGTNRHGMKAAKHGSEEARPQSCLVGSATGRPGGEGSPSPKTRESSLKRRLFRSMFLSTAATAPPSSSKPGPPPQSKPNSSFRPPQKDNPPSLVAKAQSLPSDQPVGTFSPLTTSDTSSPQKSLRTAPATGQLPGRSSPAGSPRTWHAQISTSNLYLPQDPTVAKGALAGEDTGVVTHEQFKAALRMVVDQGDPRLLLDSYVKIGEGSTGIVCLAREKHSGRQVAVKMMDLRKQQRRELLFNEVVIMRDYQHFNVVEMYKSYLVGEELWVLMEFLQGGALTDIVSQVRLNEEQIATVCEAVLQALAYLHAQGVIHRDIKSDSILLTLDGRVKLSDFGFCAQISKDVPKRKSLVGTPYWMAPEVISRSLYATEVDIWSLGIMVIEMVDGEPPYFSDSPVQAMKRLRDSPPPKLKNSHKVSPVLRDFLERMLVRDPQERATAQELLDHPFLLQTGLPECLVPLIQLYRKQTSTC

[11] = target: CDK5/p35 (Homo sapiens, UniProt Q00535); settings: 1 μM; Run 1, Run 2
[12] = target: MLCK/MYLK (Homo sapiens, UniProt Q15746); settings: 1 μM; Run 1, Run 2
[13] = target: TRKA (Homo sapiens, UniProt P04629); settings: 1 μM; Run 1, Run 2
Chain of TRKA (P04629 33-796): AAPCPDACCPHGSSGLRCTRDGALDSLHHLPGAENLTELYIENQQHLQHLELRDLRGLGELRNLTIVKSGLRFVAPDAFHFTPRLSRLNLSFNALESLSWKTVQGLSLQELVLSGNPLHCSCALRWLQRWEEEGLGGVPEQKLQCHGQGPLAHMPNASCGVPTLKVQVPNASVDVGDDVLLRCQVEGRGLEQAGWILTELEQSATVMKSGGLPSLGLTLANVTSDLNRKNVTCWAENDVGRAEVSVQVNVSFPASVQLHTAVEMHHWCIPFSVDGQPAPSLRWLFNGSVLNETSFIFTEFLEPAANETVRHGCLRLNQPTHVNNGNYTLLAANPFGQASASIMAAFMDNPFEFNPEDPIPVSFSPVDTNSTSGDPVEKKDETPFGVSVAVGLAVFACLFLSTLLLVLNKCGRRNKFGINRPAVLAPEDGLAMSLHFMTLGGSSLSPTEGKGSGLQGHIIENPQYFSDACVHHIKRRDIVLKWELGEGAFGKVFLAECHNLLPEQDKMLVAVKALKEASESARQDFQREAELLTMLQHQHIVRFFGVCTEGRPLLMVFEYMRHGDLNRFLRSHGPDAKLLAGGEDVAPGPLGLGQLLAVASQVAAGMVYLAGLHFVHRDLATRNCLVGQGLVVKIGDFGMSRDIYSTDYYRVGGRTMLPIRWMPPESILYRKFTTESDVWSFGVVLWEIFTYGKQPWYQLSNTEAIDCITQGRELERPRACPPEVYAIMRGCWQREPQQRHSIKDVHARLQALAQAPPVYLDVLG

[14] = test system: ZAK/MLTK
[15] = target: T3, EPHB2 (Homo sapiens, UniProt P29323); experiment: biochemical; settings: read-out: % enzyme activity, 1 μM; Run 1, Run 2
T3 sequence (P29323 19-1055): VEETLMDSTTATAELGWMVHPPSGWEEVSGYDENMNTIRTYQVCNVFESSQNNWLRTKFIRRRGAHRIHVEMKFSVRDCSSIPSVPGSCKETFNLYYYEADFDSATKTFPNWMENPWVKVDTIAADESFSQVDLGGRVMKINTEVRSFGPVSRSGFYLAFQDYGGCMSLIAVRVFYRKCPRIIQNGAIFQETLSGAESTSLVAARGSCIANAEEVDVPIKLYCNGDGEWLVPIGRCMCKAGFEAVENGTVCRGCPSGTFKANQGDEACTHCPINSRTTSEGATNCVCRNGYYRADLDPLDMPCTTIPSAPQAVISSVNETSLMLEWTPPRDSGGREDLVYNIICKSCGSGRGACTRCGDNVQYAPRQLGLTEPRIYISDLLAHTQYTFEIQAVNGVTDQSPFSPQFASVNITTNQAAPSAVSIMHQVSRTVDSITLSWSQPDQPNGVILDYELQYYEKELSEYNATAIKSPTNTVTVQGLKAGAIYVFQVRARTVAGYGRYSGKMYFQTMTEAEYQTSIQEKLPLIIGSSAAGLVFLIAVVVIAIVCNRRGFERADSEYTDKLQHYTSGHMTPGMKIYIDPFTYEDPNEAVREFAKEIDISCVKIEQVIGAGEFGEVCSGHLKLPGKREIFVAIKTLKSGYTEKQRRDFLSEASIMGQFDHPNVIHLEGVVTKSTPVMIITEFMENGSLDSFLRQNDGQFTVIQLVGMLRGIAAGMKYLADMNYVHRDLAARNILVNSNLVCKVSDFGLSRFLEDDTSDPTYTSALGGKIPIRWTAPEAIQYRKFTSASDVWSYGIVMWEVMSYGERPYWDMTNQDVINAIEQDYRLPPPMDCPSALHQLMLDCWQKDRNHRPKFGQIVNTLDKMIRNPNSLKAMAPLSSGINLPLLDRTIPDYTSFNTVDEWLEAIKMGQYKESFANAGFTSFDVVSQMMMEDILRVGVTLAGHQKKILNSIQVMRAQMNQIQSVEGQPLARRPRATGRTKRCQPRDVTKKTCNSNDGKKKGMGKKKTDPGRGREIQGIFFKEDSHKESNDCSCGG

SMILES | remaining activity at 1 µM [1] [%] | % enzyme activity [2] [%] | % enzyme activity [3] [%] | % enzyme activity [4] [%] | remaining activity at 1 µM [5] [%] | % enzyme activity [6] [%] | % enzyme activity [7] [%] | remaining activity at 1 µM [8] [%] | % enzyme activity [9] [%] | % enzyme activity [10] [%] | % enzyme activity [11] [%] | % enzyme activity [12] [%] | % enzyme activity [13] [%] | % enzyme activity at 1 μM [14] | remaining activity at 1 µM [15] [%]
COc1cc(-c2cncc(-c3ccc(N4C[C@@H](C)N(C)[C@@H](C)C4)cc3)c2C)cc(F)c1C(N)=O [Compound 26c, 2-Fluoro-6-methoxy-4-(4-methyl-5-(4-((3R,5S)-3,4,5-trimethylpiperazin-1-yl)phenyl)pyridin-3-yl)benzamide] | 100 | 96.23 | 92.05 | 102.08 | 95 | 97.90 | 102.83 | 96.2 | 90.97 | 95.67 | 96.90 | 101.49 | 94.00 | 46.6% | 98.8
COc1cc(-c2cncc(-c3ccc(N4CCN(C)CC4)cc3)c2C)cc(F)c1C(N)=O [Compound 26a, 2-Fluoro-6-methoxy-4-(4-methyl-5-(4-(4-methylpiperazin-1-yl)phenyl)pyridin-3-yl)benzamide] | 100 | 90.39 | 83.64 | 100.98 | 83.5 | 101.36 | 101.40 | 95.1 | 85.32 | 97.22 | 95.26 | 106.15 | 90.11 | 31.3% and 30.9% | 93.9
